Test results: patent US20230041138A1, “TREATMENT OF HIS HYPORESPONDERS” (NewAmsterdam Pharma B.V. (Dutch Registration No. 55971946), priority 2021, published 2023)
Where “and” joins values, the source holds several entries; their conditions need not be identical. Equal values may be shown once. Read-outs that look alike come from different tables or passages of the source.

Tests used:
[1] = system: LDL-C; details: cited from earlier work
[2] = system: Lipoprotein, lipid and apolipoprotein concentrations; test: Phase 2 placebo-controlled study of obicetrapib as adjunct to high-intensity statin therapy: lipid efficacy; type: in vivo, human; details: for Apo A1, week 8 change, LS Mean ± SE / Apo B, week 8 change, LS Mean ± SE / HDL-C, week 8 change, LS Mean ± SE / LDL-C (Martin-Hopkins), week 8 change, LS Mean ± SE / Lp(a), week 8 change, LS Mean ± SE / Non-HDL-C, week 8 change, LS Mean ± SE / TG, week 8 change, LS Mean ± SE / VLDL-C, week 8 change, LS Mean ± SE / LDL-C by Friedewald, % change from baseline, LS mean: MMRM; for LDL-C (PUC), week 8 change, LS Mean ± SE (Table 9): analysis of covariance model; for LDL-C (Friedewald formula) reduced from baseline by: primary analysis; for LDL-C (Friedewald formula) reduced from baseline by / Apo B reduced by / Lp(a) reduced by / non-HDL-C reduced by: stated as reduction; for ApoB, % change from baseline, median / HDL-C, % change from baseline, median / LDL-C by Friedewald, % change from baseline (median) / LDL-C by PUC, % change from baseline (median) / Non-HDL-C, % change (median) from baseline / LDL-C by Friedewald, % change from baseline, LS mean: week 8, on top of high-intensity statin
Description: The study consisted of three arms: 1) 5 mg obicetrapib as adjunctive therapy; 2) 10 mg obicetrapib as adjunctive therapy and 3) a placebo arm. The second objective was to evaluate other lipoprotein lipid and apolipoprotein responses, safety and tolerability profiles, and plasma concentrations of obicetrapib during treatment and for several weeks of follow-up. Lastly, this study aimed to determine if different quantitative measures of LDL-C levels produced differences in the treatment effects of CETP inhibition.
This randomised, double-blind, placebo-controlled, parallel-group phase 2 trial was conducted in male and female patients (18-75 years), treated with high-intensity statin therapy, with LDL-C levels >70 mg/DL and TG levels <400 mg/dL. Key exclusion criteria were patients with BMI >40 kg/m; Significant cardiovascular disease; HbAc >10%; Uncontrolled hypertension; Active muscle disease; GFR <60 ml/min; Hepatic dysfunction; Anemia; History of malignancy; Alcohol abuse; Treatment with investigational product; Treatment with PCSK9 inhibitor; Clinically significant condition; and/or prior exposure to a CETP inhibitor. Patients were recruited at 19 sites in the United States. The trial was approved by Independent Ethics Committees, and each patient provided written informed consent. The trial was conducted in accordance with the principles of the Declaration of Helsinki and Good Clinical Practice Guidelines and the protocol was registered on ClinicalTrials.gov (NCT04753606).
The screening period for this study took up to 2-weeks. Afterwards patients were randomized to placebo, 5 mg obicetrapib or 10 mg obicetrapib for an 8-week treatment period. After the treatment period, patients continued for a 4-week safety follow-up and a 15-week PK follow-up.
Patients were randomly assigned to receive one of the three treatments investigative treatments. All treatments were to be taken once daily with food for 8 weeks. Safety was assessed throughout the trial by monitoring adverse events and concomitant medication use, 12-lead electrocardiograms (ECGs), vital signs, laboratory safety assessments and physical examinations. Additional assessments included salivary cortisol, plasma aldosterone, high-sensitivity C-reactive protein (hsCRP) and endothelin 1.
Efficacy assessments included fasted lipid profiles including total cholesterol (TC), HDL-C, LDL-C, triglycerides, apolipoprotein B (ApoB), and derived parameters.
Total cholesterol and triglycerides were measured by homogenous enzymatic assay using a Modular analyser (cholesterol oxidase peroxidase-peroxidase aminophenazone phenol [CHOP-PAP]) method and a glycerol phosphate oxidase [GPO-PAP] method, respectively. Apolipoprotein B was measured by immunoturbidimetry using reagents from Rolf Greiner Biochemica (Germany) and N apoprotein standard serum from Siemens (Germany). LDL particle size was determined by gradient gel electrophoresis. HDL fraction was separated by a combined ultracentrifugation-precipitation method (β-quantification). HDL-2 and HDL-3 fractions were then separated by further ultracentrifugation. Total-cholesterol in HDL, HDL 2 and HLD-3 fractions, free cholesterol in HDL fraction, triglycerides in HDL fraction and phospholipids in plasma and HDL-fraction were measured using enzymatic methods and reagents from Diasys Diagnostics (Germany). The measurements were performed on an Olympus AU600 automatic analyzer and were calibrated using secondary standards from Roche Diagnostics (total-cholesterol, triglycerides) and Diasys Diagnostics (free cholesterol, phospholipids), respectively. Esterified cholesterol was calculated as the difference between total-cholesterol and free cholesterol.
The primary outcome measure was LDL-C (percent change). Secondary outcome measures included ApoB, Non-HDL-C and HDL-C (percent change). The Intent-to-Treat (ITT) Population included all participants randomized into the study. […]

[3] = 5 mg once daily for 8 weeks on top of high-intensity statin
[4] = 5 mg once daily on top of high-intensity statin
[5] = 5 mg once daily on top of high-intensity statin, listed as obicetrapib
[6] = 5 mg once daily, 8 weeks, on top of high-intensity statin
[7] = 10 mg once daily for 8 weeks on top of high-intensity statin
[8] = 10 mg once daily on top of high-intensity statin
[9] = 10 mg once daily, 8 weeks, on top of high-intensity statin

CCOC(=O)N1c2ccc(C(F)(F)F)cc2[C@@H](N(Cc2cc(C(F)(F)F)cc(C(F)(F)F)c2)c2ncc(OCCCC(=O)O)cn2)C[C@H]1CC [Obicetrapib, (2R,4S)-4-{[3,5-bis(trifluoromethyl)benzyl]-[5-(3-carboxypropoxy)pyrimidin-2-yl]amino}-2-ethyl-6-trifluoromethyl-3,4-dihydro-2H-quinoline-1-carboxylic acid ethyl ester]
LDL-C reduction ([1]; 1 mg for 12 weeks, mild dyslipidemia): 27%
LDL-C reduction ([1]; 2.5 mg for 12 weeks, mild dyslipidemia): 33%
LDL-C reduction ([1]; 5 mg for 12 weeks, mild dyslipidemia): 45%
LDL-C reduction ([1]; 10 mg for 12 weeks, mild dyslipidemia): 45%
LDL-C reduction ([1]; 10 mg obicetrapib plus 10 mg rosuvastatin): 63%
LDL-C reduction ([1]; 10 mg obicetrapib plus 20 mg atorvastatin): 68%
incremental LDL-C reduction compared with statin monotherapy ([1]; daily 10 mg with moderate-intensity statins (20 mg atorvastatin or 10 mg rosuvastatin), 12 weeks): up to 50%
Time of treatment at which maximum LDL-C reductions were already present ([2]; 5 mg and 10 mg add-on to high-intensity statin): ≤ 4 weeks
ApoB, EoT median [2, 3]: 65.0 mg/dL
ApoB, change from baseline, median [2, 3]: -22.0 mg/dL
HDL-C, EoT median [2, 3]: 107.0 mg/dL
HDL-C, change from baseline, median [2, 3]: 60.0 mg/dL
LDL-C by Friedewald, EoT median [2, 3]: 51.0 mg/dL
LDL-C by PUC, EoT median [2, 3]: 53.0 mg/dL
Non-HDL-C, EoT median [2, 3]: 71 mg/dL
Apo A1, week 8 change, median (min, max) [2, 4]: 44.6% and 44.6 (−10.0, 87.1) %
LDL-C (Martin-Hopkins), week 8 change, median (min, max) [2, 4]: −42.5 (−80.8, 74.4) %
Lp(a), week 8 change, median (min, max) [2, 4]: −33.8 (−84.6, 93.8) %
TG, week 8 change, median (min, max) [2, 4]: −11.0 (−53.3, 86.7) %
VLDL-C, week 8 change, median (min, max) [2, 4]: −11.5 (−53.5, 83.3) %
Apo A1, week 8 change, LS Mean ± SE [2, 4]: 41.1 ± 3.04%
Apo B, week 8 change, LS Mean ± SE [2, 4]: −22.4 ± 2.58%
HDL-C, week 8 change, LS Mean ± SE [2, 4]: 122 ± 6.59%
LDL-C (Martin-Hopkins), week 8 change, LS Mean ± SE [2, 4]: −39.6 ± 3.68%
Lp(a), week 8 change, LS Mean ± SE [2, 4]: −30.9 ± 4.43%
Non-HDL-C, week 8 change, LS Mean ± SE [2, 4]: −34.4 ± 3.18%
TG, week 8 change, LS Mean ± SE [2, 4]: −6.63 ± 5.32%
VLDL-C, week 8 change, LS Mean ± SE [2, 4]: −6.02 ± 5.24%
LDL-C (PUC), week 8 change, LS Mean ± SE (Table 9) [2, 4]: −35.7 ± 3.31%
LDL-C (Martin-Hopkins), week 8 change, median (min, max) [2, 5]: 42.5%
TG, week 8 change, median (min, max) [2, 5]: −11.0%
VLDL-C, week 8 change, median (min, max) [2, 5]: −11.5%
LDL-C by PUC, % change from baseline, LS mean (Table 3) [2, 6]: −37.98%
LDL-C (Friedewald formula) reduced from baseline by [2, 6]: 42.9%
Apo B reduced by [2, 6]: 24.4%
Lp(a) reduced by [2, 6]: 33.8%
non-HDL-C reduced by [2, 6]: 38.9%
ApoB, % change from baseline, median ([2]; 5 mg once daily): −24.40% and −24.4 (−58.5, 47.4) %
HDL-C, % change from baseline, median ([2]; 5 mg once daily): 135% and 135.4% and 135 (−26.4, 213) %
LDL-C by Friedewald, % change from baseline (median) ([2]; 5 mg once daily): −42.90% and −42.9 (−81.9, 72.4) %
LDL-C by PUC, % change from baseline (median) ([2]; 5 mg once daily): −41.5% and −41.45% and −41.5 (−71.2, 62.3) %
Non-HDL-C, % change (median) from baseline ([2]; 5 mg once daily): −38.9% and −38.9 (−65.6, 66.3) %
LDL-C by Friedewald, % change from baseline, LS mean ([2]; 5 mg once daily): −37.94% and −38.0 ± 3.49%
LDL-C by PUC, % change from baseline (median) ([2]; 5 mg once daily, listed as obicetrapib): −41.5%
ApoB, EoT median [2, 7]: 58.5 mg/dL
ApoB, change from baseline, median [2, 7]: -24.5 mg/dL
HDL-C, EoT median [2, 7]: 117.5 mg/dL
HDL-C, change from baseline, median [2, 7]: 72.0 mg/dL
LDL-C by Friedewald, EoT median [2, 7]: 52.0 mg/dL
LDL-C by PUC, EoT median [2, 7]: 49.5 mg/dL
Non-HDL-C, EoT median [2, 7]: 69 mg/dL
Apo A1, week 8 change, median (min, max) [2, 8]: 47.8% and 47.8 (13.5, 106) %
LDL-C (Martin-Hopkins), week 8 change, median (min, max) [2, 8]: −49.2 (−77.0, 28.1) %
Lp(a), week 8 change, median (min, max) [2, 8]: −56.5 (−85.7, 18.3) %
TG, week 8 change, median (min, max) [2, 8]: −7.85 (−63.7, 129) %
VLDL-C, week 8 change, median (min, max) [2, 8]: −7.90 (−44.4, 125) %
Apo A1, week 8 change, LS Mean ± SE [2, 8]: 52.3 ± 3.04%
Apo B, week 8 change, LS Mean ± SE [2, 8]: −28.1 ± 2.56%
HDL-C, week 8 change, LS Mean ± SE [2, 8]: 157 ± 6.54%
LDL-C (Martin-Hopkins), week 8 change, LS Mean ± SE [2, 8]: −46.9 ± 3.65%
Lp(a), week 8 change, LS Mean ± SE [2, 8]: −42.0 ± 4.33%
Non-HDL-C, week 8 change, LS Mean ± SE [2, 8]: −39.9 ± 3.15%
TG, week 8 change, LS Mean ± SE [2, 8]: 2.45 ± 5.27%
VLDL-C, week 8 change, LS Mean ± SE [2, 8]: 3.08 ± 5.19%
LDL-C (PUC), week 8 change, LS Mean ± SE (Table 9) [2, 8]: −46.8 ± 3.23%
LDL-C (Martin-Hopkins), week 8 change, median (min, max) ([2]; 10 mg once daily on top of high-intensity statin, listed as obicetrapib): −49.2%
LDL-C by PUC, % change from baseline, LS mean (Table 3) [2, 9]: −44.15%
TG and VLDL-C, comparison with placebo [2, 9]: not significantly different
LDL-C (Friedewald formula) reduced from baseline by [2, 9]: 45.7%
Apo B reduced by [2, 9]: 29.8%
Lp(a) reduced by [2, 9]: 56.5%
non-HDL-C reduced by [2, 9]: 44.4%
ApoB, % change from baseline, median ([2]; 10 mg once daily): −29.75% and −29.8 (−58.4, 13.0) %
HDL-C, % change from baseline, median ([2]; 10 mg once daily): 165% and 165 (55.1,286) %
LDL-C by Friedewald, % change from baseline (median) ([2]; 10 mg once daily): −45.65% and −45.7 (−78.0, 26.2) %
LDL-C by PUC, % change from baseline (median) ([2]; 10 mg once daily): −50.8% and −50.75% and −50.8 (−76.9, 15.6) %
Non-HDL-C, % change (median) from baseline ([2]; 10 mg once daily): −44.4% and −44.4 (.70.2, 22.5) %
LDL-C by Friedewald, % change from baseline, LS mean ([2]; 10 mg once daily): −44.15% and −44.2 ± 3.46%
LDL-C by PUC, % change from baseline (median) ([2]; 10 mg once daily, listed as obicetrapib): −50.8%
median Apo B reduction from baseline, post-hoc analysis ([2]; 10 mg, individuals with baseline Apo B >100 mg/dL): 39%
